Results on one compound are retold here after article PMC12177912, “A Geranylated Natural Product Simamycin Disrupts the Allosteric Catalysis of tRNA-2-selenouridine Synthase SelU” (Biochemistry, 2025).

The experiment deals with T1, tRNA-2-selenouridine synthase (SelU, MnmH) (Escherichia coli, UniProt Q0TKD8).
T1 construct: M1-A172 (N-terminal rhodanese domain; tags removed with TEV)
Description: intrinsic tryptophan fluorescence quenching titration (Kd at […] °C; […] at […] °C, […] at […] °C, […] at […] °C); STD NMR. Format: binding.

T1 sequence (Q0TKD8 1-172): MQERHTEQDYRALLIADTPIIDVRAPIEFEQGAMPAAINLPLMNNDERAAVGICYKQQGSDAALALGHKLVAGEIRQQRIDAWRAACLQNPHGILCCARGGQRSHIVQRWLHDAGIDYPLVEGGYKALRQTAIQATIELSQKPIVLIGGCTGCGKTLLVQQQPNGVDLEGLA

As a reminder, the Kd is the concentration at which binding is half-saturated. A lower Kd goes with higher affinity. `CC(C)=CCC/C(C)=C/COC[C@H]1O[C@@H](n2ccc(=O)[nH]c2=O)[C@H](O)[C@@H]1O` [simamycin]: the Kd amounted to 29.9 µM. This counts as double-digit micromolar.
